Source: ChEMBL document CHEMBL2311287, “Selective inhibition of extracellular thioredoxin by asymmetric disulfides” (J Med Chem, 2013)
Positions count from the first letter of the chain named. Each block holds one molecule with its values, some of them ahead of it. Activity calls are given as the source filed them. The calls are words filed in the database; no cut-off is given here.

What was measured:
[1] = test system: Transglutaminase 2 (Homo sapiens); experiment: Inhibition of human recombinant thioredoxin-mediated TG2 activation expressed in T84 cells assessed as blockade of 5-biotinamidopentylamine incorporation at 25 uM after 3 hrs by fluorescence microscopic analysis
[2] = test system: T1, Thioredoxin (Homo sapiens), P10599 [W31A]; experiment: Inhibition of human thioredoxin W31A mutant
T1 sequence (whole entry): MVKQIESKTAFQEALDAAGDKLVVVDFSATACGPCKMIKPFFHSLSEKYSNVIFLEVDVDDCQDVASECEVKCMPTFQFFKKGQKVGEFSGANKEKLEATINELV

[3] = target: T2, Thioredoxin (Homo sapiens) (UniProt P10599); experiment: Inhibition of wild type human thioredoxin by insulin turbidity assay; details: concentration not given here
T2 sequence (whole entry): T1 sequence (whole entry) with A31W

Thioredoxin = target: T3, Thioredoxin (Homo sapiens, UniProt P10599); experiment: Inhibition of human recombinant thioredoxin-mediated TG2 activation expressed in T84 cells assessed as blockade of 5-biotinamidopentylamine incorporation after 3 hrs by streptavidin-HRP/TMB absorbance assay
T3 sequence (P10599 whole entry): T1 sequence (whole entry) with A31W

inhibition [1]: Active
Structure (SMILES): O=C(NC[C@@H]1CC(Br)=NO1)[C@@H]1CCCN1C(=O)OCc1cnc2ccccc2c1

Ratio [2]: 1.42 µM⁻¹ min⁻¹
inhibition [3]: 78%
Structure (SMILES): CCC(C)SSc1nc2ccccc2[nH]1 (centres undefined)

IC50 (Thioredoxin): 2.11 µM
Structure (SMILES): CCC(C)SSc1ncc[nH]1 (centres undefined) [PX-12]
